The values below come from patent publication US20250339377A1, “PHARMACEUTICAL COMPOSITION OF NUCLEOSIDE-DERIVED COMPOUND, PREPARATION METHOD THEREFOR, AND USE THEREOF” (SHENZHEN ANTIV PHARMA CO., LTD., priority 2022, published 2025).

Type in all cases: physicochemical
Series [1] is described as follows: Stability investigation - related substance. The following applies: API, package N/A, condition N/A. The method, then: 37167-054A and 37167-054B were packed as described in Table 17 and Table 18, then separately placed under illumination (open), 40° C./75% RH (open), and 40° C./75% RH (closed) conditions for 0 day, 10 days, and 30 days, and detected for the dissolution and related substance.

Series [2] can be described thus: Compatibility of raw material and auxiliary material. The following applies: 60° C., 25° C./90% RH, 40° C./75% RH, illumination; 30 days. The source says: Operation: Common auxiliary materials of solid oral dosage forms were selected to be mixed with the SHEN26 drug substance in different ratios, and the mixtures were placed under different conditions and separately taken out at different time points. The compatibility of the drug substance and the auxiliary materials was judged by taking the appearance, the hygroscopic weight gain, the content and the related substance as indexes. For the ratio of the raw and auxiliary materials, according to “Basic Technical Guidelines for Research of Chemical Drug Formulation” and the specification of the formulation, the auxiliary material with a relatively large amount was determined according to a ratio of main drug:diluent=1:5, the auxiliary material with a moderate amount (such as croscarmellose sodium) was mixed according to a ratio of main drug:disintegrant=1:1, and the auxiliary material with a relatively small amount (such as magnesium stearate) was mixed according to a ratio of main drug:lubricant=5:1. The manufacturer information of the raw and auxiliary materials in the compatibility experiment and the ratio of raw and auxiliary materials are shown in Table 16. […]

Series [3] is described as follows: Micromeritic properties of API and formula powders. The source says:
Detection of micromeritic properties: The micromeritic properties of the SHEN26 compound raw material and the micromeritic properties of the mixed powder obtained by directly mixing the SHEN26 compound and other auxiliary materials were detected.
Preparation method: pulverizing the compound SHEN26, sieving the compound (sieving separately with a 40-mesh sieve and a 60-mesh sieve), mixing with a pharmaceutically acceptable excipient, performing dry granulation, adding an external lubricant, mixing, and filling capsules to give a capsule of the compound SHEN26. Observation of phenomenon: After dry granulation, the micromeritic properties were examined, and the results are shown in Table 12. Dissolution detection: The compound SHEN26 capsules obtained in Example 4 were separately detected for the dissolution, and the results are shown in Table 13.

As for `CC(C)C(=O)OC[C@H]1O[C@@](C#N)(c2ccc3c(N)ncnn23)[C@H](O)[C@@H]1O` [SHEN26], in series [1], the “Related substance % RRT 0.37” value is given as 0.26%, the “Related substance % RRT 0.54” value was determined as 0.35%, the “Related substance % RRT 1.03” value was 0.15% and the “Related substance % RRT 1.30” value was determined as 0.05%. Also, the Total impurity % in series [1] came out at 0.81%. Also, in series [2], the “Compatibility with auxiliary materials (appearance, hygroscopic weight gain, content, related substance)” value is “good compatibility”. Further, in series [3], the “Angle of repose (°)” value is on record as 40.98 °, the “Bulk density” value turned out to be 0.53 g/mL, the “Carr index (%)” value is 27.40% and the “Tap density” value was 0.73 g/mL.
